This note sets out measurements from PMC9631343 (ACS Bio & Med Chem Au, 2022).

The structures appear in SMILES notation.

The series is described as follows: in vitro. To be noted: African green monkey.
As to `OC[C@H]1O[C@@H](n2cnc3c(N[C@@H]4CCOC4)ncnc32)[C@H](O)[C@@H]1O` [tecadenoson], the CC50 is over 100 µM.
Molecule `CC(C)=CCNc1ncnc2c1ncn2[C@@H]1O[C@H](CO)[C@@H](O)[C@H]1O` [riboprine, N^6-(2-Isopentenyl)adenosine] gave a CC50 of over 100 µM.
As to `CC(C)Nc1nc2cc(Cl)c(Cl)cc2n1[C@H]1O[C@@H](CO)[C@H](O)[C@@H]1O` [maribavir], the CC50 is over 100 µM.
For the molecule `O=c1[nH]cnc2c([C@@H]3N[C@H](CO)[C@@H](O)[C@H]3O)c[nH]c12` [forodesine], the CC50 is over 100 µM.
The result for `CC(C)C(=O)OC[C@H]1O[C@@H](n2ccc(NO)nc2=O)[C@H](O)[C@@H]1O` [molnupiravir] reads over 100 µM; that for `Nc1ncnc2c1ncn2[C@@H]1O[C@H](CO)[C@@H](O)[C@@H]1O` [vidarabine, Arabinosyladenine], over 100 µM; that for `COc1nc(N)nc2c1ncn2[C@@H]1O[C@H](CO)[C@@H](O)[C@@H]1O` [nelarabine], over 100 µM.
Molecule `CCC(CC)COC(=O)[C@H](C)N[P@](=O)(OC[C@H]1O[C@@](C#N)(c2ccc3c(N)ncnn23)[C@H](O)[C@@H]1O)Oc1ccccc1` [remdesivir] gave a CC50 of over 100 µM.
